Test results published in ChEMBL document CHEMBL1201862, “PubChem BioAssay data set” (2004).
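Where inhibition never reached the appropriate level, the endpoint shown equals the highest concentration tested. Otherwise, values were interpolated linearly from a five-concentration, 48-hour dose response in 96-well plates. GI50: concentration for 50% inhibition of growth.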 Active and inactive are the calls of the source. Cut-off read from the data, not from the text of the source: active = GI50 up to about 1.1 µM and inactive = higher.

Key:
Test in all cases: NCI tumour cell line growth inhibition, 48 h
NCI-H522 = system: NCI-H522
MDA-N = system: MDA-N
SNB-19 = system: SNB-19
UACC-62 = system: UACC-62
UO-31 = system: UO-31
CCRF-CEM = system: CCRF-CEM
A549 = system: A549
HOP-62 = system: HOP-62
TK-10 = system: TK-10
COLO 205 = system: COLO 205
MDA-MB-435 = system: MDA-MB-435
KM12 = system: KM12
M14 = system: M14
SW-620 = system: SW-620
LOX IMVI = system: LOX IMVI
SK-OV-3 = system: SK-OV-3
CAKI-1 = system: CAKI-1
NCI-H460 = system: NCI-H460
A498 = system: A498
NCI-H226 = system: NCI-H226

Compound	GI50 (NCI-H522)	GI50 (MDA-N)	GI50 (SNB-19)	GI50 (UACC-62)	GI50 (UO-31)	GI50 (CCRF-CEM)	GI50 (A549)	GI50 (HOP-62)	GI50 (TK-10)	GI50 (COLO 205)	GI50 (MDA-MB-435)	GI50 (KM12)	GI50 (M14)	GI50 (SW-620)	GI50 (LOX IMVI)	GI50 (SK-OV-3)	GI50 (CAKI-1)	GI50 (NCI-H460)	GI50 (A498)	GI50 (NCI-H226)
O=c1oc2ccc(Cl)cc2cc1-c1cn2ccsc2n1	21 µM (inactive)	46 µM (inactive)	51.9 µM (inactive)	34.3 µM (inactive)	34.3 µM (inactive)	25.8 µM (inactive)	38.4 µM (inactive)	46.8 µM (inactive)	> 100 µM (inactive)	36.1 µM (inactive)	40.8 µM (inactive)	42.4 µM (inactive)	57.7 µM (inactive)	59.7 µM (inactive)	43.2 µM (inactive)	83.6 µM (inactive)	42.8 µM (inactive)	49.9 µM (inactive)	–	–
O=C(O)C1CC2(C1)CC(C(=O)O)C2 (configuration not stated)	> 100 µM (inactive)	> 100 µM (inactive)	> 100 µM (inactive)	> 100 µM (inactive)	> 100 µM (inactive)	–	> 100 µM (inactive)	> 100 µM (inactive)	> 100 µM (inactive)	> 100 µM (inactive)	> 100 µM (inactive)	> 100 µM (inactive)	> 100 µM (inactive)	> 100 µM (inactive)	> 100 µM (inactive)	> 100 µM (inactive)	> 100 µM (inactive)	> 100 µM (inactive)	> 100 µM (inactive)	–
CN1C2CCC1CC(=CCOC(c1ccc(F)cc1)c1ccc(F)cc1)C2	11.6 µM (inactive)	–	21.2 µM (inactive)	15.1 µM (inactive)	9.91 µM (inactive)	37 µM (inactive)	17.1 µM (inactive)	17.7 µM (inactive)	14.9 µM (inactive)	11 µM (inactive)	12.8 µM (inactive)	15 µM (inactive)	16.4 µM (inactive)	30.8 µM (inactive)	16.8 µM (inactive)	17 µM (inactive)	16.4 µM (inactive)	17.2 µM (inactive)	14.7 µM (inactive)	20.3 µM (inactive)
CC#CS(=O)(=O)c1ccccc1	1.62 µM (inactive)	–	14.2 µM (inactive)	3.24 µM (inactive)	1.86 µM (inactive)	–	16.1 µM (inactive)	21.7 µM (inactive)	4.92 µM (inactive)	11.2 µM (inactive)	10.9 µM (inactive)	–	5.87 µM (inactive)	3.78 µM (inactive)	5.45 µM (inactive)	17.3 µM (inactive)	1.04 µM (active)	17.5 µM (inactive)	15.4 µM (inactive)	9.91 µM (inactive)
CCOC(=O)CSc1[nH]c(NC(=S)Nc2ccccc2)c(C(N)=O)c1C(N)=O	–	> 10 µM (inactive)	–	> 10 µM (inactive)	–	4.95 µM (inactive)	> 10 µM (inactive)	> 10 µM (inactive)	> 10 µM (inactive)	> 10 µM (inactive)	> 10 µM (inactive)	> 10 µM (inactive)	> 10 µM (inactive)	> 10 µM (inactive)	> 10 µM (inactive)	> 10 µM (inactive)	> 10 µM (inactive)	–	–	–
OCCN(CCO)c1nc(N2CCCCC2)c2nc(N(CCO)CCO)nc(N3CCCCC3)c2n1 [DIPYRIDAMOLE]	17.9 µM (inactive)	45.8 µM (inactive)	–	–	33 µM (inactive)	20 µM (inactive)	38.5 µM (inactive)	29 µM (inactive)	17.1 µM (inactive)	41.9 µM (inactive)	69.7 µM (inactive)	43 µM (inactive)	55.8 µM (inactive)	58.3 µM (inactive)	37 µM (inactive)	–	45.5 µM (inactive)	28 µM (inactive)	–	48.9 µM (inactive)
CC1=C[C@H](O)[C@@]2(C)[C@@H]([C@@H]1C)[C@H]1CC[C@@H]3[C@@]4(C)CC[C@H](O)C(C)(C)[C@@H]4CC[C@@]3(C)[C@]1(C)C[C@@H]2O	17.9 µM (inactive)	15.8 µM (inactive)	15.8 µM (inactive)	18.8 µM (inactive)	18.6 µM (inactive)	16.9 µM (inactive)	12.8 µM (inactive)	17.3 µM (inactive)	22.2 µM (inactive)	16.6 µM (inactive)	20.7 µM (inactive)	22.1 µM (inactive)	17.1 µM (inactive)	22.1 µM (inactive)	21.5 µM (inactive)	18.4 µM (inactive)	20.8 µM (inactive)	18.9 µM (inactive)	–	23.1 µM (inactive)
CCOC(=O)NC(C(=O)OCC)C(F)(F)F (configuration not stated)	–	> 100 µM (inactive)	> 100 µM (inactive)	> 10 µM (inactive)	> 100 µM (inactive)	40.6 µM (inactive)	> 100 µM (inactive)	> 100 µM (inactive)	> 100 µM (inactive)	> 100 µM (inactive)	–	> 100 µM (inactive)	> 100 µM (inactive)	> 100 µM (inactive)	76.6 µM (inactive)	> 100 µM (inactive)	> 100 µM (inactive)	> 100 µM (inactive)	–	–
